Measured values from PubChem BioAssay (NCI).
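Briefly, cells in 96-well plates were exposed to five compound concentrations for 48 h, and endpoints were estimated by linear interpolation. At the TGI there is no net growth.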

Assays:
Experiment in all cases: NCI anticancer screen, dose series, 48 h
786-0 renal = test system: 786-0 renal
A498 renal = test system: A498 renal
ACHN renal = test system: ACHN renal
BT-549 breast = test system: BT-549 breast
CAKI-1 renal = test system: CAKI-1 renal
CCRF-CEM leukemia = test system: CCRF-CEM leukemia
COLO 205 colon = test system: COLO 205 colon
DU-145 prostate = test system: DU-145 prostate
EKVX NSCLC = test system: EKVX NSCLC
HCC-2998 colon = test system: HCC-2998 colon
HCT-116 colon = test system: HCT-116 colon
HCT-15 colon = test system: HCT-15 colon
HL-60(TB) leukemia = test system: HL-60(TB) leukemia
HOP-62 NSCLC = test system: HOP-62 NSCLC
HOP-92 NSCLC = test system: HOP-92 NSCLC
HS 578T breast = test system: HS 578T breast
HT29 colon = test system: HT29 colon
IGROV1 ovarian = test system: IGROV1 ovarian
K-562 leukemia = test system: K-562 leukemia
KM12 colon = test system: KM12 colon
LOX IMVI melanoma = test system: LOX IMVI melanoma
M14 melanoma = test system: M14 melanoma
MALME-3M melanoma = test system: MALME-3M melanoma
MCF7 breast = test system: MCF7 breast
MDA-MB-231 breast = test system: MDA-MB-231 breast
MDA-MB-435 = test system: MDA-MB-435
MDA-N = test system: MDA-N
MOLT-4 leukemia = test system: MOLT-4 leukemia
NCI-H226 lung = test system: NCI-H226 lung
NCI-H23 lung = test system: NCI-H23 lung
NCI-H460 lung = test system: NCI-H460 lung
NCI-H522 lung = test system: NCI-H522 lung
NCI/ADR-RES ovarian = test system: NCI/ADR-RES ovarian
OVCAR-3 ovarian = test system: OVCAR-3 ovarian
OVCAR-4 ovarian = test system: OVCAR-4 ovarian
OVCAR-5 ovarian = test system: OVCAR-5 ovarian
OVCAR-8 ovarian = test system: OVCAR-8 ovarian
PC-3 prostate = test system: PC-3 prostate
RPMI-8226 leukemia = test system: RPMI-8226 leukemia
RXF 393 renal = test system: RXF 393 renal
SF-268 CNS = test system: SF-268 CNS
SF-295 CNS = test system: SF-295 CNS
SF-539 CNS = test system: SF-539 CNS
SK-MEL-2 melanoma = test system: SK-MEL-2 melanoma
SK-MEL-28 melanoma = test system: SK-MEL-28 melanoma
SK-MEL-5 melanoma = test system: SK-MEL-5 melanoma
SK-OV-3 ovarian = test system: SK-OV-3 ovarian
SN12C renal = test system: SN12C renal
SNB-19 CNS = test system: SNB-19 CNS
SNB-75 CNS = test system: SNB-75 CNS
SR leukemia = test system: SR leukemia
SW-620 colon = test system: SW-620 colon
T-47D breast = test system: T-47D breast
TK-10 renal = test system: TK-10 renal
U251 CNS = test system: U251 CNS
UACC-257 melanoma = test system: UACC-257 melanoma
UACC-62 melanoma = test system: UACC-62 melanoma
UO-31 renal = test system: UO-31 renal
A549 NSCLC = test system: A549 NSCLC

For `Cc1ccnc2sc3ccccc3c(=O)c12`, which TGI (786-0 renal) is on record?
Its TGI is greater than 100 µM.

What about the TGI (A498 renal) of the same compound?
The TGI was greater than 100 µM.

And the TGI (ACHN renal)?
The TGI was greater than 100 µM.

And the TGI (BT-549 breast)?
The TGI was greater than 100 µM.

What about the TGI (CAKI-1 renal) of the same compound?
Its TGI is 61.5 µM.

And the TGI (CCRF-CEM leukemia)?
The TGI was greater than 100 µM.

And the TGI (COLO 205 colon)?
Its TGI is greater than 100 µM.

And the TGI (DU-145 prostate)?
The TGI was greater than 100 µM.

What about the TGI (EKVX NSCLC) of the same compound?
Its TGI is 94.4 µM.

What about the TGI (HCC-2998 colon) of the same compound?
The TGI was greater than 100 µM.

And the TGI (HCT-116 colon)?
Its TGI is greater than 100 µM.

What about the TGI (HCT-15 colon) of the same compound?
The TGI was greater than 100 µM.

What about the TGI (HL-60(TB) leukemia) of the same compound?
The TGI was greater than 100 µM.

And the TGI (HOP-62 NSCLC)?
Its TGI is greater than 100 µM.

And the TGI (HOP-92 NSCLC)?
The TGI was greater than 100 µM.

What about the TGI (HS 578T breast) of the same compound?
Its TGI is 77.6 µM.

What about the TGI (HT29 colon) of the same compound?
Its TGI is 93.3 µM.

And the TGI (IGROV1 ovarian)?
Its TGI is greater than 100 µM.

What about the TGI (K-562 leukemia) of the same compound?
Its TGI is greater than 100 µM.

And the TGI (KM12 colon)?
Its TGI is greater than 100 µM.

What about the TGI (LOX IMVI melanoma) of the same compound?
The TGI was greater than 100 µM.

What about the TGI (M14 melanoma) of the same compound?
Its TGI is greater than 100 µM.

And the TGI (MALME-3M melanoma)?
Its TGI is greater than 100 µM.

And the TGI (MCF7 breast)?
Its TGI is greater than 100 µM.

And the TGI (MDA-MB-231 breast)?
Its TGI is greater than 100 µM.

What about the TGI (MDA-MB-435) of the same compound?
Its TGI is greater than 100 µM.

What about the TGI (MDA-N) of the same compound?
Its TGI is greater than 100 µM.

And the TGI (MOLT-4 leukemia)?
Its TGI is 79.2 µM.

And the TGI (NCI-H226 lung)?
The TGI was greater than 100 µM.

And the TGI (NCI-H23 lung)?
The TGI was greater than 100 µM.

And the TGI (NCI-H460 lung)?
Its TGI is greater than 100 µM.

And the TGI (NCI-H522 lung)?
The TGI was 99.2 µM.

What about the TGI (NCI/ADR-RES ovarian) of the same compound?
The TGI was greater than 100 µM.

And the TGI (OVCAR-3 ovarian)?
The TGI was greater than 100 µM.

And the TGI (OVCAR-4 ovarian)?
Its TGI is greater than 100 µM.

What about the TGI (OVCAR-5 ovarian) of the same compound?
The TGI was greater than 100 µM.

And the TGI (OVCAR-8 ovarian)?
Its TGI is greater than 100 µM.

And the TGI (PC-3 prostate)?
Its TGI is greater than 100 µM.

And the TGI (RPMI-8226 leukemia)?
The TGI was greater than 100 µM.

What about the TGI (RXF 393 renal) of the same compound?
The TGI was greater than 100 µM.

And the TGI (SF-268 CNS)?
The TGI was greater than 100 µM.

What about the TGI (SF-295 CNS) of the same compound?
Its TGI is greater than 100 µM.

What about the TGI (SF-539 CNS) of the same compound?
Its TGI is greater than 100 µM.

And the TGI (SK-MEL-2 melanoma)?
Its TGI is greater than 100 µM.

What about the TGI (SK-MEL-28 melanoma) of the same compound?
Its TGI is greater than 100 µM.

What about the TGI (SK-MEL-5 melanoma) of the same compound?
The TGI was 73.4 µM.

And the TGI (SK-OV-3 ovarian)?
The TGI was greater than 100 µM.

What about the TGI (SN12C renal) of the same compound?
The TGI was greater than 100 µM.

And the TGI (SNB-19 CNS)?
Its TGI is greater than 100 µM.

What about the TGI (SNB-75 CNS) of the same compound?
The TGI was 63.2 µM.

What about the TGI (SR leukemia) of the same compound?
The TGI was greater than 100 µM.

What about the TGI (SW-620 colon) of the same compound?
The TGI was greater than 100 µM.

What about the TGI (T-47D breast) of the same compound?
Its TGI is greater than 100 µM.

What about the TGI (TK-10 renal) of the same compound?
Its TGI is 90.6 µM.

What about the TGI (U251 CNS) of the same compound?
The TGI was greater than 100 µM.

What about the TGI (UACC-257 melanoma) of the same compound?
Its TGI is greater than 100 µM.

What about the TGI (UACC-62 melanoma) of the same compound?
The TGI was 63 µM.

And the TGI (UO-31 renal)?
The TGI was 81.8 µM.

For `Cc1nc(N)nc(N)c1N1CCN(Cc2ccccc2)CC1`, which TGI (786-0 renal) is on record?
The TGI was greater than 100 µM.

And the TGI (A498 renal)?
Its TGI is greater than 100 µM.

What about the TGI (A549 NSCLC) of the same compound?
Its TGI is greater than 100 µM.

What about the TGI (ACHN renal) of the same compound?
The TGI was greater than 100 µM.

And the TGI (BT-549 breast)?
The TGI was greater than 100 µM.

And the TGI (CAKI-1 renal)?
Its TGI is greater than 100 µM.

What about the TGI (CCRF-CEM leukemia) of the same compound?
The TGI was greater than 100 µM.

And the TGI (COLO 205 colon)?
The TGI was greater than 100 µM.

What about the TGI (DU-145 prostate) of the same compound?
The TGI was greater than 100 µM.

What about the TGI (EKVX NSCLC) of the same compound?
The TGI was greater than 100 µM.

What about the TGI (HCC-2998 colon) of the same compound?
The TGI was greater than 100 µM.

And the TGI (HCT-116 colon)?
Its TGI is greater than 100 µM.

And the TGI (HCT-15 colon)?
Its TGI is greater than 100 µM.

And the TGI (HL-60(TB) leukemia)?
Its TGI is greater than 100 µM.

What about the TGI (HOP-62 NSCLC) of the same compound?
Its TGI is greater than 100 µM.

And the TGI (HOP-92 NSCLC)?
Its TGI is greater than 100 µM.

And the TGI (HS 578T breast)?
Its TGI is greater than 100 µM.

And the TGI (HT29 colon)?
The TGI was greater than 100 µM.

And the TGI (IGROV1 ovarian)?
Its TGI is greater than 100 µM.

And the TGI (K-562 leukemia)?
The TGI was greater than 100 µM.

What about the TGI (KM12 colon) of the same compound?
The TGI was greater than 100 µM.

What about the TGI (LOX IMVI melanoma) of the same compound?
The TGI was greater than 100 µM.

What about the TGI (M14 melanoma) of the same compound?
Its TGI is greater than 100 µM.

What about the TGI (MALME-3M melanoma) of the same compound?
The TGI was greater than 69 µM.

And the TGI (MCF7 breast)?
The TGI was greater than 100 µM.

What about the TGI (MDA-MB-231 breast) of the same compound?
Its TGI is greater than 100 µM.

And the TGI (MDA-MB-435)?
Its TGI is greater than 100 µM.

And the TGI (MDA-N)?
The TGI was greater than 100 µM.

What about the TGI (MOLT-4 leukemia) of the same compound?
Its TGI is greater than 100 µM.

And the TGI (NCI-H226 lung)?
Its TGI is greater than 100 µM.

What about the TGI (NCI-H23 lung) of the same compound?
Its TGI is greater than 100 µM.

What about the TGI (NCI-H460 lung) of the same compound?
Its TGI is greater than 100 µM.

What about the TGI (NCI-H522 lung) of the same compound?
The TGI was greater than 93.5 µM.

What about the TGI (NCI/ADR-RES ovarian) of the same compound?
The TGI was greater than 92.6 µM.

And the TGI (OVCAR-3 ovarian)?
The TGI was greater than 100 µM.

What about the TGI (OVCAR-4 ovarian) of the same compound?
Its TGI is greater than 100 µM.

And the TGI (OVCAR-5 ovarian)?
The TGI was greater than 100 µM.

And the TGI (OVCAR-8 ovarian)?
Its TGI is greater than 100 µM.

What about the TGI (PC-3 prostate) of the same compound?
The TGI was greater than 100 µM.

And the TGI (RPMI-8226 leukemia)?
Its TGI is greater than 95.6 µM.

And the TGI (RXF 393 renal)?
Its TGI is greater than 100 µM.

And the TGI (SF-268 CNS)?
The TGI was greater than 100 µM.

And the TGI (SF-295 CNS)?
Its TGI is greater than 100 µM.

What about the TGI (SF-539 CNS) of the same compound?
The TGI was greater than 100 µM.

And the TGI (SK-MEL-2 melanoma)?
Its TGI is greater than 100 µM.

And the TGI (SK-MEL-28 melanoma)?
Its TGI is greater than 100 µM.

What about the TGI (SK-MEL-5 melanoma) of the same compound?
Its TGI is greater than 100 µM.

What about the TGI (SK-OV-3 ovarian) of the same compound?
Its TGI is greater than 100 µM.

What about the TGI (SN12C renal) of the same compound?
The TGI was greater than 100 µM.

What about the TGI (SNB-19 CNS) of the same compound?
Its TGI is greater than 100 µM.

And the TGI (SNB-75 CNS)?
The TGI was greater than 100 µM.

What about the TGI (SR leukemia) of the same compound?
The TGI was greater than 100 µM.

What about the TGI (SW-620 colon) of the same compound?
Its TGI is greater than 100 µM.

What about the TGI (T-47D breast) of the same compound?
The TGI was greater than 100 µM.

What about the TGI (TK-10 renal) of the same compound?
The TGI was greater than 100 µM.

What about the TGI (U251 CNS) of the same compound?
Its TGI is greater than 100 µM.

And the TGI (UACC-257 melanoma)?
Its TGI is greater than 100 µM.

And the TGI (UACC-62 melanoma)?
Its TGI is greater than 100 µM.

And the TGI (UO-31 renal)?
Its TGI is greater than 100 µM.
